System: Mycobacterium tuberculosis
Experiment: Antitubercular activity against Mycobacterium tuberculosis at 12.5 ug/mL by TAACF method
Assay type: functional

CC1=CCC[C@H]2[C@](C)(CCC3=CC(=O)OC3O)[C@@H](C)CC[C@]12C (stereo partly specified)
inhibition at 12.5 µg/mL: 85%

From ChEMBL document CHEMBL1155639, “Synthesis of 16,18-dihydroxycleroda-3,13Z-dien-16,15-olide, (+)-16-hydroxycleroda-3,13Z-dien-16,15-olide, and (-)-hydroxyhalima-5(10),13-dien-16,15-olide from (+)-hardwickiic acid” (2000)
